In patent US4772691A, “Chemically cleavable nucleotides” (The Medical College of Wisconsin, Inc., priority 1985, dated 1988):

Assays:
[1] = system: avidin; conditions: compared with avidin-biotin; cited from earlier work
[2] = target: E. coli DNA polymerase I (Escherichia coli, UniProt P00582); assay: nick-translation reaction, incorporation of [32P]dCTP into 145-bp DNA; type: biochemical; conditions: for rate of nick-translation reaction relative to TTP: 20 μM nucleotide, relative to equal concentration of TTP
Experimental: Nick-Translation Reactions. Nucleosome length DNA fragments [145 base pairs (bp)]were purified from monomer nucleosomes prepared by micrococcal nuclease digestion of chicken erythrocyte nuclei followed by fractionation on an agarose A-5m column (2). Four microgram aliquots of 145-bp DNA fragments in 0.1 ml of 50 mM Tris-HCl, pH 7.5/5 mM MgCl2 /50 μg of bovine serum albumin per ml were nicktranslated (3) in the presence of 20 μM dATP and dGTP, 20 μM [^32 P]dCTP (2-5 μCi/nmol; 1 Ci =37 GBq), and either dTTP, Bio-4-dUTP, or Bio-SS-dUTP as indicated. 2-Mercaptoethanol was eliminated from the nick-translation buffer to preserve the Bio-SS-dUTP. DNase I (0.01 ng per 0.1 ml of reaction mixture) was added to the reaction, which was then incubated for 5 min at 15° C. prior to the addition of E. coli DNA polymerase I (4 units per 0.1 ml of reaction mixture).
Bio-SS-dUTP Is a Substrate for E. coli DNA Polymerase. To determine whether Bio-SS-dUTP could serve as a substrate for E. coli DNA polymerase I, its incorporation into DNA in a nick-translation reaction was measured. The incorporation of [^32 P ]dCTP into purified nucleosome-length DNA fragments (145 bp) in the presence of 20 μM dATP, dGTP, dCTP, and either the normal nucleotide, TTP, or one of three biotinylated nucleotide analogs was measured. Bio-SS-dUTP was capable of supporting the nick-translation reaction at 35%-40% the rate observed with an equal concentration of TTP. […] If no TTP is present with the biotinylated nucleotides in the nick-translation reaction, the newly synthesized DNA is very heavily biotinylated. To reduce this level of modification, the nick-translation reactions can be performed in the presence of μM/10TTP/10 μM Bio-SS-dUTP.

[3] = HPLC of Bio-SS-dUTP in presence of 2-mercaptoethanol (disulfide cleavage); type: physicochemical; conditions: 5 mM 2-mercaptoethanol immediately before HPLC
Experimental: It was not necessary to further purify the AA-dUTP by HPLC at this stage in the synthesis. Instead, 2.0 μmol of AA-dUTP in 200 μl of 0.1 M sodium borate (pH 8.5) was added directly to 2.0 μmol of sulfo-NHS-SS-biotin. The reaction was allowed to proceed at room temperature for 1 to 2 hr. The resulting Bio-SS-dUTP was purified by ion-pair reversed-phase HPLC using a Bio-Sil ODS-5S column (250×4 mm; Bio-Rad). Aliquots of the reaction (100 μl) were adjusted to 50 mM Et3 NHCO3 (pH 7.5) and 10% acetonitrile, diluted to 500 μl with the same buffer, and applied to the column at a flow rate of 0.5 ml/min (1600 psi). Bio-SS-dUTP was eluted isocratically with 50 mM Et3 NHCO3 (pH 7.5) and 10% acetonitrile. Column fractions containing Bio-SS-dUTP were pooled, rotary evaporated, resuspended in 10 mM Tris HCl (pH 7.5); and stored at -80° C. From 2.0 μmol of AA-dUTP, 1.0-1.6 μmol of Bio-SS-dUTP can be obtained by this procedure.
An identical aliquot of the Bio-SS-dUTP reaction was supplemented with 2-mercaptoethanol to a final concentration of 5 mM immediately prior to its application and chromatography on HPLC. […] Instead, there was a corresponding increase in the material eluting from the column with the solvent breakthrough (3.3 min). […]

Sequence of E. coli DNA polymerase I (P00582 whole entry, the tested form may be a part): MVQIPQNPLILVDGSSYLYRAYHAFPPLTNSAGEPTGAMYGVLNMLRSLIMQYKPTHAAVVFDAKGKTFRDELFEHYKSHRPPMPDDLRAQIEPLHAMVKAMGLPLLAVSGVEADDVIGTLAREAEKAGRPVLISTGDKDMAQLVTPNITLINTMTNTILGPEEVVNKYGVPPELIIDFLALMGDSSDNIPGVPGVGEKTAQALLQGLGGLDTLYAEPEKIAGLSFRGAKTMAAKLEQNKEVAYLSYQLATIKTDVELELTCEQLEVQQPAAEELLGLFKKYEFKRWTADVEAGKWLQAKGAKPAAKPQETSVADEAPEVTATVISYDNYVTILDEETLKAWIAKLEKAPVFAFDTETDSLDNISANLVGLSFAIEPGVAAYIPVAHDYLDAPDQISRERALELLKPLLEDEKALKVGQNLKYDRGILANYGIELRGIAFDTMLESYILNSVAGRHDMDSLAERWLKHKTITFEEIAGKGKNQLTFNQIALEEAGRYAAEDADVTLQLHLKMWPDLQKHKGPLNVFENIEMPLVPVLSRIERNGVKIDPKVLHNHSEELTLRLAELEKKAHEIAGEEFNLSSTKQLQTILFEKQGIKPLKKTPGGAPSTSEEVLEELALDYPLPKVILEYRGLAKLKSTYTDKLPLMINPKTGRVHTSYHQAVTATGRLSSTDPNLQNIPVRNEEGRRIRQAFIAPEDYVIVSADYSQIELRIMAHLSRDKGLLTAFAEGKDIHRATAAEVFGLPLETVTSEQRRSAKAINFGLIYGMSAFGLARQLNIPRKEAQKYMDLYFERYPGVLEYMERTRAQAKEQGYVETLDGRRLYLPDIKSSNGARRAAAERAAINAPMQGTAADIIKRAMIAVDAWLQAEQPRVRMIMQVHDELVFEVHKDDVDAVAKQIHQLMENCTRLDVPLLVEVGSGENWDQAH

SMILES | strength of avidin-iminobiotin interaction [1] | rate of nick-translation reaction relative to TTP [2] | rate of nick-translation reaction in mixture with TTP ([2]; 10 μM TTP/10 μM Bio-SS-dUTP versus 20 μM TTP alone) | residues incorporated per nucleosome-length fragment ([2]; nick-translated with equal concentrations of TTP and Bio-SS-dUTP) | substrate for E. coli DNA polymerase ([2]; nick-translation) | intact compound after 2-mercaptoethanol (HPLC) [3]
N=C1N[C@H]2[C@H](CS[C@H]2CCCCC(=O)O)N1 [2-iminobiotin] | not nearly as strong as that of avidin-biotin | – | – | – | – | –
O=C(CCCC[C@@H]1SC[C@@H]2NC(=O)N[C@@H]21)NCC=Cc1cn([C@H]2C[C@H](O)[C@@H](COP(=O)(O)OP(=O)(O)OP(=O)(O)O)O2)c(=O)[nH]c1=O [Bio-4-dUTP, reference compound] | – | 60% | – | – | – | –
O=C(CCSSCCNC(=O)CCCC[C@@H]1SC[C@@H]2NC(=O)N[C@@H]21)NCC=Cc1cn([C@H]2C[C@H](O)[C@@H](COP(=O)(O)OP(=O)(O)OP(=O)(O)O)O2)c(=O)[nH]c1=O [Bio-SS-dUTP] | – | 35%-40% | only slightly slower | 2-5 residues per nucleosome-length fragment | good substrate | no UV-absorbing material eluted from the column with the retention time expected for intact Bio-SS-dUTP
